This note sets out measurements from ChEMBL document CHEMBL1133994, “Design and synthesis of sialyl Lewis x mimics as E-selectin inhibitors” (Bioorg Med Chem Lett, 2001).

In general, IC50 refers to the concentration that gives 50% inhibition.

In test [1] the target is T1, E-selectin (Homo sapiens, UniProt P16581).
T1 sequence (P16581 whole entry): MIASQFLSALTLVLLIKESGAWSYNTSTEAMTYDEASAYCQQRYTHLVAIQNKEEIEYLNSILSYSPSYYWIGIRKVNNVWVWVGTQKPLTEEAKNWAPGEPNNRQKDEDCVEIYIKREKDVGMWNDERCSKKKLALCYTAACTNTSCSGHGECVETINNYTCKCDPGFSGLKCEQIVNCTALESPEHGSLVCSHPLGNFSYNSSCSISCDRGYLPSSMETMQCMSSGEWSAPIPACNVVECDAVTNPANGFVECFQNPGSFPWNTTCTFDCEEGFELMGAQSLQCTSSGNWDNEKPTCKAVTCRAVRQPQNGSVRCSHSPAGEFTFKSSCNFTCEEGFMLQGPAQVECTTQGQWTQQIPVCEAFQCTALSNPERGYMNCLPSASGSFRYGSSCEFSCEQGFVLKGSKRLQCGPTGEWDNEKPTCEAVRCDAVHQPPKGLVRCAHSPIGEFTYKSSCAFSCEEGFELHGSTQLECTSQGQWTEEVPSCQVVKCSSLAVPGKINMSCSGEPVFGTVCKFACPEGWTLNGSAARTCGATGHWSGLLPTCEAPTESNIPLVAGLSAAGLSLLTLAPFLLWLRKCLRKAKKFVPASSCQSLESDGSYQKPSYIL
As to the kind of experiment: In vitro inhibitory activity against Selectin E binding to human recombinant AGP (alpha-1 acid glycoprotein).

Test [2] concerns the target T1, E-selectin. As to the kind of experiment: In vitro inhibitory activity against binding of Selectin E to human recombinant AGP (alpha-1 acid glycoprotein) at a concentration of 10 mM; NA- Not active.

Consider `O=C(O)CC[C@H](NC(=O)CC1OC(CO)C(O)C(O)C1O)C(=O)O` (some centres not stated), for which the IC50 at E-selectin [1] came out at 3 mM.
Turning to `O=C(O)CC[C@H](NC(=O)CC1OC(CN2CCC(O)(Cc3ccccc3)CC2)C(O)C(O)C1O)C(=O)O` (some centres not stated), on E-selectin [1], the IC50 is 1.6 mM.
For `NCCCC[C@@H](NC(=O)CC1OC(CO)C(O)C(O)C1O)C(=O)O` (some centres not stated), the IC50 on E-selectin [1] turned out to be 7 mM.
On the same count and under the same terms, for `O=C(O)C[C@@H](NC(=O)CC1OC(CO)C(O)C(O)C1O)C(=O)O` (some centres not stated) the value was 6 mM; for `CC1CCCC(N(C)CC2OC(CC(=O)N[C@@H](CCC(=O)O)C(=O)O)C(O)C(O)C2O)C1` (some centres not stated), 8 mM.
As to `O=C(O)CCc1ccc(NC(=O)CC2OC(CO)C(O)C(O)C2O)cc1` (configuration not stated), the IC50 on E-selectin [1] was determined as 10 mM.
With `NC(=O)[C@H]1CCCN1CC1OC(CC(=O)N[C@@H](CCC(=O)O)C(=O)O)C(O)C(O)C1O` (some centres not stated), the IC50 result at E-selectin [2] is reported as “Not Active”.
For `O=C(O)C(NCCC1OC(CO)C(O)C(O)C1O)c1cc2ccccc2[nH]1` (configuration not stated), the IC50 result on E-selectin [2] is recorded as “Not Active”.
Turning to `Cc1cccc(N2CCN(CC3OC(CC(=O)N[C@@H](CCC(=O)O)C(=O)O)C(O)C(O)C3O)CC2)c1C` (some centres not stated), on E-selectin [2], the IC50 entry is recorded as “Not Active”.
The same measure, in the same setting: for `C[C@@H](Cc1ccccc1)N(C)CC1OC(CC(=O)N[C@@H](CCC(=O)O)C(=O)O)C(O)C(O)C1O` (some centres not stated) the value was “Not Active”.
`O=C(O)CC[C@H](NC(=O)CC1OC(CNc2cc(C(=O)O)cc(C(=O)O)c2)C(O)C(O)C1O)C(=O)O` (some centres not stated): the IC50 at E-selectin [1] worked out at 6 mM.
With `NC(=O)CC[C@@H](NC(=O)CC1OC(CO)C(O)C(O)C1O)C(=O)O` (some centres not stated), on E-selectin [1], the IC50 was more than 10 mM.
Consider `O=C(O)CCCc1ccc(NC(=O)CC2OC(CO)C(O)C(O)C2O)cc1` (configuration not stated), for which the IC50 on E-selectin [1] was more than 10 mM.
With `O=C(O)c1cc(NCCC2OC(CO)C(O)C(O)C2O)cc(C(=O)O)c1` (configuration not stated), the IC50 result at E-selectin [2] is reported as “Not Active”.
With `NC(=O)[C@H](Cc1ccccc1)NCC1OC(CC(=O)N[C@@H](CCC(=O)O)C(=O)O)C(O)C(O)C1O` (some centres not stated), the IC50 at E-selectin [1] was 6.7 mM.
Consider `NC(=O)CC1OC(CO)C(O)C(O)C1O` (configuration not stated), for which the IC50 entry on E-selectin [2] is reported as “Not Active”.
Regarding `O=C(O)CC[C@@H](NC(=O)CC1OC(CO)C(O)C(O)C1O)C(=O)O` (some centres not stated), the half-maximal inhibitory concentration (IC50) on E-selectin [1] was 7 mM.
